# Measured values reported in the supplement of paper PMC11061612.
# Tests used:
# Assay in all cases: combination Emax (second highest fraction inhibited in the dose matrix, 72 h); higher = more inhibition; extreme values may be limits of the assay
# [1] = tested on: NCI-H2085 (Non-Small Cell Lung Carcinoma)
# Summary of the method: (§1)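 Bliss excess equals the observed combination effect minus the expected value EA + EB − EA·EB, where EA and EB are the effects of each agent alone. Combination Emax is the second-highest inhibition within the matrix. Inhibition was scaled from CellTiter-Glo 2.0 luminescence, with 0 set by vehicle wells and 1 by blank wells, after 72 hours of two-drug dosing of cells plated in 1536-well plates.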
# [2] = tested on: TE-15 (Esophageal Squamous Cell Carcinoma)
# Summary of the method: as §1
# [3] = tested on: HO-1-N-1 (Oral Cavity Carcinoma)
# Summary of the method: as §1
# [4] = tested on: Ramos-2G6-4C10 (Burkitt's Lymphoma)
# Summary of the method: as §1
# [5] = tested on: NCI-H82 (Small Cell Lung Carcinoma)
# Summary of the method: as §1
# KELLY (Neuroblastoma) = tested on: KELLY (Neuroblastoma)
# Summary of the method: as §1
# [6] = tested on: Calu-3 (Lung Adenocarcinoma)
# Summary of the method: as §1
# [7] = tested on: UM-UC-3 (Bladder Carcinoma)
# Summary of the method: as §1
# [8] = tested on: TE-9 (Esophageal Squamous Cell Carcinoma)
# Summary of the method: as §1
# [9] = tested on: HCC-78 (Lung Adenocarcinoma)
# Summary of the method: as §1
# [10] = tested on: DoTc2-4510 (Cervical Carcinoma)
# Summary of the method: as §1
# [11] = tested on: HT-1376 (Bladder Carcinoma)
# Summary of the method: as §1
# [12] = tested on: Hs-578-T (Breast Carcinoma)
# Summary of the method: as §1
# NB10 (Neuroblastoma) = tested on: NB10 (Neuroblastoma)
# Summary of the method: as §1
# [13] = tested on: KURAMOCHI (Ovarian Carcinoma)
# Summary of the method: as §1
# [14] = tested on: CAL-148 (Breast Carcinoma)
# Summary of the method: as §1
# [15] = tested on: CaR-1 (Colorectal Carcinoma)
# Summary of the method: as §1
# [16] = tested on: CCRF-CEM (T-Lymphoblastic Leukemia)
# Summary of the method: as §1
# [17] = tested on: ME-1 (Acute Myeloid Leukemia)
# Summary of the method: as §1
# T98G (Glioblastoma) = tested on: T98G (Glioblastoma)
# Summary of the method: as §1
smiles,measurement,setting,value
"C[C@@H](Nc1cc(F)cc(F)c1)c1cc(C(=O)N(C)C)cc2c(=O)cc(N3CCOCC3)oc12 [AZD8186] + CC(=O)c1c(C)c2cnc(Nc3ccc(N4CCNCC4)cn3)nc2n(C2CCCC2)c1=O [Palbociclib] (first compound max 10 µM, 7x7, partner max 10 µM)",combination Emax,[1],0.61
same,combination Emax,[2],0.597
same,combination Emax,[3],0.505
same,combination Emax,[4],0.302
same,combination Emax,[5],0.526
same,combination Emax,KELLY (Neuroblastoma),0.434
same,combination Emax,[6],0.281
same,combination Emax,[7],0.621
same,combination Emax,[8],0.109
same,combination Emax,[9],0.365
same,combination Emax,[10],0.297
same,combination Emax,[11],0.0814
same,combination Emax,[12],0.656
same,combination Emax,NB10 (Neuroblastoma),0.403
same,combination Emax,[13],0.28
same,combination Emax,[14],0.655
same,combination Emax,[15],0.471
same,combination Emax,[16],0.622
same,combination Emax,[17],0.233
same,combination Emax,T98G (Glioblastoma),0.657
"C[C@@H](Oc1cc(-c2cnn(C3CCNCC3)c2)cnc1N)c1c(Cl)ccc(F)c1Cl [Crizotinib] + CC1=C(C(=CC=C1)Cl)NC(=O)C2=CN=C(S2)NC3=CC(=NC(=N3)C)N4CCN(CC4)CCO [Dasatinib] (first compound max 10 µM, 7x7, partner max 2 µM)",combination Emax,[1],1
same,combination Emax,[2],0.79
same,combination Emax,[3],0.972
same,combination Emax,[4],0.586
same,combination Emax,[5],0.875
same,combination Emax,KELLY (Neuroblastoma),0.991
same,combination Emax,[6],0.767
same,combination Emax,[7],0.716
same,combination Emax,[8],0.691
same,combination Emax,[9],0.754
same,combination Emax,[10],0.897
same,combination Emax,[11],0.418
same,combination Emax,[12],0.961
same,combination Emax,NB10 (Neuroblastoma),0.792
same,combination Emax,[13],0.909
same,combination Emax,[14],0.578
same,combination Emax,[15],0.943
same,combination Emax,[16],0.911
same,combination Emax,[17],0.258
same,combination Emax,T98G (Glioblastoma),0.971
"C[C@@H](Oc1cc(-c2cnn(C3CCNCC3)c2)cnc1N)c1c(Cl)ccc(F)c1Cl [Crizotinib] + Cn1cnc2c(F)c(Nc3ccc(Br)cc3Cl)c(C(=O)NOCCO)cc21 [Selumetinib] (first compound max 10 µM, 7x7, partner max 10 µM)",combination Emax,[1],0.545
same,combination Emax,[2],0.406
same,combination Emax,[3],0.769
same,combination Emax,[4],0.4
same,combination Emax,[5],0.787
same,combination Emax,KELLY (Neuroblastoma),0.98
same,combination Emax,[6],0.172
same,combination Emax,[7],0.346
same,combination Emax,[8],0.167
same,combination Emax,[9],0.637
same,combination Emax,[10],0.292
same,combination Emax,[11],0.0756
same,combination Emax,[12],0.512
same,combination Emax,NB10 (Neuroblastoma),0.872
same,combination Emax,[13],0.508
same,combination Emax,[14],0.578
same,combination Emax,[15],0.491
same,combination Emax,[16],0.854
same,combination Emax,[17],0.458
same,combination Emax,T98G (Glioblastoma),0.427
"CS(=O)(=O)CCNCc1ccc(-c2ccc3ncnc(Nc4ccc(OCc5cccc(F)c5)c(Cl)c4)c3c2)o1 [Lapatinib] + Cn1cnc2c(F)c(Nc3ccc(Br)cc3Cl)c(C(=O)NOCCO)cc21 [Selumetinib] (first compound max 10 µM, 7x7, partner max 10 µM)",combination Emax,[1],0.341
same,combination Emax,[2],0.775
same,combination Emax,[3],0.956
same,combination Emax,[4],0.347
same,combination Emax,[5],0.416
same,combination Emax,KELLY (Neuroblastoma),0.936
same,combination Emax,[6],0.933
same,combination Emax,[7],0.306
same,combination Emax,[8],0.149
same,combination Emax,[9],0.228
same,combination Emax,[10],0.597
same,combination Emax,[11],0.287
same,combination Emax,[12],0.69
same,combination Emax,NB10 (Neuroblastoma),0.481
same,combination Emax,[13],0.58
same,combination Emax,[14],0.373
same,combination Emax,[15],0.426
same,combination Emax,[16],0.46
same,combination Emax,[17],0.397
same,combination Emax,T98G (Glioblastoma),0.25
"O=C(c1cc(Cc2n[nH]c(=O)c3ccccc23)ccc1F)N1CCN(C(=O)C2CC2)CC1 [Olaparib] + CC1(C)CCC(CN2CCN(c3ccc(C(=O)NS(=O)(=O)c4ccc(NCC5CCOCC5)c([N+](=O)[O-])c4)c(Oc4cnc5[nH]ccc5c4)c3)CC2)=C(c2ccc(Cl)cc2)C1 [Venetoclax] (first compound max 10 µM, 7x7, partner max 1 µM)",combination Emax,[1],0.0675
same,combination Emax,[2],0.251
same,combination Emax,[3],0.221
same,combination Emax,[4],0.126
same,combination Emax,[5],0.395
same,combination Emax,KELLY (Neuroblastoma),0.632
same,combination Emax,[6],0.102
same,combination Emax,[7],0.0664
same,combination Emax,[8],0.171
same,combination Emax,[9],0.0996
same,combination Emax,[10],0.259
same,combination Emax,[11],0.0615
same,combination Emax,[12],0.308
same,combination Emax,NB10 (Neuroblastoma),0.348
same,combination Emax,[13],0.137
same,combination Emax,[14],0.261
same,combination Emax,[15],0.0709
same,combination Emax,[16],0.209
same,combination Emax,[17],1
same,combination Emax,T98G (Glioblastoma),0.123
"O=C(c1cc(Cc2n[nH]c(=O)c3ccccc23)ccc1F)N1CCN(C(=O)C2CC2)CC1 [Olaparib] + CN(CC[C@H](CSC1=CC=CC=C1)NC2=C(C=C(C=C2)S(=O)(=O)NC(=O)C3=CC=C(C=C3)N4CCC(CC4)[C@H](C5=CC=CC=C5C6=CC=C(C=C6)Cl)O)S(=O)(=O)C(F)(F)F)CCO [AZD4320] (first compound max 10 µM, 7x7, partner max 1 µM)",combination Emax,[1],0.289
same,combination Emax,[2],0.22
same,combination Emax,[3],0.352
same,combination Emax,[4],0.404
same,combination Emax,[5],0.382
same,combination Emax,KELLY (Neuroblastoma),0.831
same,combination Emax,[6],0.257
same,combination Emax,[7],0.188
same,combination Emax,[8],0.321
same,combination Emax,[9],0.241
same,combination Emax,[10],0.668
same,combination Emax,[11],0.215
same,combination Emax,[12],0.62
same,combination Emax,NB10 (Neuroblastoma),0.389
same,combination Emax,[13],0.379
same,combination Emax,[14],0.83
same,combination Emax,[15],0.136
same,combination Emax,[16],0.986
same,combination Emax,[17],1
same,combination Emax,T98G (Glioblastoma),0.251
